These results are taken from patent US6620831B2, “Indazoles substituted with 1,1-dioxoisothiazolidine useful as inhibitors of cell proliferation” (LG Life Sciences Ltd., priority 2000, dated 2003).

Where only a bound is given, the exact number is not on record here.

The assay has as its target T1, CDK2/cyclin A (Homo sapiens, UniProt P24941).
T1 construct: made in house; host or cells: insect ('worm') cells co-infected with baculoviruses
The assay is described as follows: CDK2 inhibitory activity (CDK2/cyclin A, [gamma-32P] ATP, histon H1 or Rb protein substrate). Format: biochemical. The note with it: first IC50 column (c1) of Table 1. The text has this: CDK2 enzyme was obtained from either extract from the worm cell co-infected with baculovirus which expresses a CDK2 gene and baculovirus which expresses a cyclin A gene, or active enzyme purified therefrom. CDK4 was also obtained from either extract from the worm cell co-infected with baculovirus which expresses a CDK4 gene and baculovirus which expresses a cyclin D1 gene. As substrates, histon H1 or Rb protein was used for CDK2, and Rb protein for CDK4. The radioactive activities in substrates were determined by reacting compounds diluted with each concentration with a proper quantity of CDK2/cyclin A or CDK4/cyclin D1 and substrate protein, and [gamma-32P labeled] ATP, and then separating the substrates.
Inhibitory abilities of inhibitors according to the present invention for each enzyme activity were expressed as IC50 values, which were determined in accordance with the method as described above.
In general, IC50 refers to the point on the concentration scale where inhibition reaches its midpoint. Lower therefore signals greater potency. In the case of `O=C(Cc1ccccc1)Nc1n[nH]c2ccc(N3CCCS3(=O)=O)cc12` [Compound 1, N-[5-(1,1-dioxo-1λ^6-isothiazolidin-2-yl)-1H-indazol-3-yl]-2-phenylacetamide], the half-inhibitory concentration (IC50) is below 0.05 µM.
Then `O=C(Cc1cccc(Cl)c1)Nc1n[nH]c2ccc(N3CCCS3(=O)=O)cc12` [Compound 2, 2-(3-chlorophenyl)-N-[5-(1,1-dioxo-1λ^6-isothiazolidin-2-yl)-1H-indazol-3-yl]acetamide], with below 0.05 µM; and `O=C(Cc1ccc(OCc2ccccc2)cc1)Nc1n[nH]c2ccc(N3CCCS3(=O)=O)cc12` [Compound 3, 2-[4-(benzyloxy)phenyl]-N-[5-(1,1-dioxo-1λ^6-isothiazolidin-2-yl)-1H-indazol-3-yl]acetamide], with below 0.1 µM; and `O=C(Cc1ccc(O)cc1)Nc1n[nH]c2ccc(N3CCCS3(=O)=O)cc12` [Compound 4, N-[5-(1,1-dioxo-1λ^6-isothiazolidin-2-yl)-1H-indazol-3-yl]-2-(4-hydroxyphenyl)acetamide], with below 0.05 µM.
Then `O=C(Cc1ccc(N(Cc2ccccc2)Cc2ccccc2)cc1)Nc1n[nH]c2ccc(N3CCCS3(=O)=O)cc12` [Compound 5, 2-[4-(dibenzylamino)phenyl]-N-[5-(1,1-dioxo-1λ^6-isothiazolidin-2-yl)-1H-indazol-3-yl]acetamide], with below 0.5 µM.
Take `CNc1ccc(CC(=O)Nc2n[nH]c3ccc(N4CCCS4(=O)=O)cc23)cc1` [Compound 6, N-[5-(1,1-dioxo-1λ^6-isothiazolidin-2-yl)-1H-indazol-3-yl]-2-[4-(methylamino)phenyl]acetamide]: the IC50 was below 0.05 µM.
Then `Nc1ccc(CC(=O)Nc2n[nH]c3ccc(N4CCCS4(=O)=O)cc23)cc1` [Compound 7, 2-(4-aminophenyl)-N-[5-(1,1-dioxo-1λ^6-isothiazolidin-2-yl)-1H-indazol-3-yl]acetamide], with below 0.05 µM; and `O=C(Cc1ccc(Cl)cc1)Nc1n[nH]c2ccc(N3CCCS3(=O)=O)cc12` [Compound 8, 2-(4-chlorophenyl)-N-[5-(1,1-dioxo-1λ^6-isothiazolidin-2-yl)-1H-indazol-3-yl]acetamide], with below 0.05 µM; and `O=C(Cc1ccc(F)cc1)Nc1n[nH]c2ccc(N3CCCS3(=O)=O)cc12` [Compound 9, N-[5-(1,1-dioxo-1λ^6-isothiazolidin-2-yl)-1H-indazol-3-yl]-2-(4-fluorophenyl)acetamide], with below 0.05 µM.
Then `O=C(Cc1ccc(-c2ccccc2)cc1)Nc1n[nH]c2ccc(N3CCCS3(=O)=O)cc12` [Compound 10, 2-[1,1′-biphenyl]-4-yl-N-[5-(1,1-dioxo-1λ^6-isothiazolidin-2-yl)-1H-indazol-3-yl]acetamide], with below 0.05 µM; and `O=C(Cc1cccc(Br)c1)Nc1n[nH]c2ccc(N3CCCS3(=O)=O)cc12` [Compound 11, 2-(3-bromophenyl)-N-[5-(1,1-dioxo-1λ^6-isothiazolidin-2-yl)-1H-indazol-3-yl]acetamide], with below 0.05 µM; and `O=C(Cc1ccc(Br)cc1)Nc1n[nH]c2ccc(N3CCCS3(=O)=O)cc12` [Compound 12, 2-(4-bromophenyl)-N-[5-(1,1-dioxo-1λ^6-isothiazolidin-2-yl)-1H-indazol-3-yl]acetamide], with below 0.05 µM.
The result for `O=S1(=O)CCCN1c1ccc2[nH]nc(NC(=S)Cc3ccccc3)c2c1` [Compound 13, N-[5-(1,1-dioxo-1λ^6-isothiazolidin-2-yl)-1H-indazol-3-yl]-2-phenylethanethioamide] reads below 10 µM; that for `O=S1(=O)CCCN1c1ccc2[nH]nc(NC(Cc3ccccc3)=NO)c2c1` [Compound 14, N-[5-(1,1-dioxo-1λ^6-isothiazolidin-2-yl)-1H-indazol-3-yl]-N′-hydroxy-2-phenylethaneimidoamide], below 10 µM.
As to `O=C(Cc1ccc2c(c1)OCO2)Nc1n[nH]c2ccc(N3CCCS3(=O)=O)cc12` [Compound 15, 2-(1,3-benzodioxol-5-yl)-N-[5-(1,1-dioxo-1λ^6-isothiazolidin-2-yl)-1H-indazole-3-yl]acetamide], the IC50 is below 0.05 µM.
The result for `O=C(Cc1cccc2ccccc12)Nc1n[nH]c2ccc(N3CCCS3(=O)=O)cc12` [Compound 16, N-[5-(1,1-dioxo-1λ^6-isothiazolidin-2-yl)-1H-indazol-3-yl]-2-(1-naphthyl)acetamide] reads below 0.05 µM; that for `O=C(Cc1ccc2ccccc2c1)Nc1n[nH]c2ccc(N3CCCS3(=O)=O)cc12` [Compound 17, N-[5-(1,1-dioxo-1λ^6-isothiazolidin-2-yl)-1H-indazol-3-yl]-2-(2-naphthyl)acetamide], below 0.05 µM.
The result for `O=C(Cc1cccc([N+](=O)[O-])c1)Nc1n[nH]c2ccc(N3CCCS3(=O)=O)cc12` [Compound 18, N-[5-(1,1-dioxo-1λ^6-isothiazolidin-2-yl)-1H-indazol-3-yl]-2-(3-nitrophenyl)acetamide] reads below 0.05 µM; that for `CC(=O)Nc1n[nH]c2ccc(N3CCCS3(=O)=O)cc12` [Compound 19, N-[5-(1,1-dioxo-1λ^6-isothiazolidin-2-yl)-1H-indazol-3-yl]acetamide], above 100 µM; that for `CSc1ccc(CC(=O)Nc2n[nH]c3ccc(N4CCCS4(=O)=O)cc23)cc1` [Compound 20, N-[5-(1,1-dioxo-1λ^6-isothiazolidin-2-yl)-1H-indazol-3-yl]-2-[4-(methylsulfanil)phenyl]acetamide], below 0.05 µM.
Then `Nc1cccc(CC(=O)Nc2n[nH]c3ccc(N4CCCS4(=O)=O)cc23)c1` [Compound 21, 2-(3-aminophenyl)-N-[5-(1,1-dioxo-1λ^6-isothiazolidin-2-yl)-1H-indazol-3-yl]acetamide], with below 0.05 µM; and `CC(=S)Nc1n[nH]c2ccc(N3CCCS3(=O)=O)cc12` [Compound 22, N-[5-(1,1-dioxo-1λ^6-isothiazolidin-2-yl)-1H-indazol-3-yl]ethanethioamide], with below 50 µM.
The compound `CC(=NO)Nc1n[nH]c2ccc(N3CCCS3(=O)=O)cc12` [Compound 23, N-[5-(1,1-dioxo-1λ^6-isothiazolidin-2-yl)-1H-indazol-3-yl]-N′-hydroxyethaneimidoamide] had an IC50 below 100 µM.
As for `O=C(Cc1ccc(Cl)c(Cl)c1)Nc1n[nH]c2ccc(N3CCCS3(=O)=O)cc12` [Compound 24, 2-(3,4-dichlorophenyl)-N-[5-(1,1-dioxo-1λ^6-isothiazolidin-2-yl)-1H-indazol-3-yl]acetamide], the IC50 is below 0.05 µM.
Then `O=C(CCc1ccccc1)Nc1n[nH]c2ccc(N3CCCS3(=O)=O)cc12` [Compound 25, N-[5-(1,1-dioxo-1λ^6-isothiazolidin-2-yl)-1H-indazol-3-yl]-3-phenylpropanamide], with below 1 µM.
Then `CC(C)c1ccc(CC(=O)Nc2n[nH]c3ccc(N4CCCS4(=O)=O)cc23)cc1` [Compound 26, N-[5-(1,1-dioxo-1λ^6-isothiazolidin-2-yl)-1H-indazol-3-yl]-2-(4-isopropylphenyl)acetamide], with below 0.05 µM; and `Cc1cccc(CC(=O)Nc2n[nH]c3ccc(N4CCCS4(=O)=O)cc23)c1` [Compound 27, N-[5-(1,1-dioxo-1λ^6-isothiazolidin-2-yl)-1H-indazol-3-yl]-2-(3-methylphenyl)acetamide], with below 0.05 µM; and `Cc1ccc(CC(=O)Nc2n[nH]c3ccc(N4CCCS4(=O)=O)cc23)cc1` [Compound 28, N-[5-(1,1-dioxo-1λ^6-isothiazolidin-2-yl)-1H-indazol-3-yl]-2-(4-methylphenyl)acetamide], with below 0.05 µM.
Then `CS(=O)(=O)c1ccc(CC(=O)Nc2n[nH]c3ccc(N4CCCS4(=O)=O)cc23)cc1` [Compound 29, N-[5-(1,1-dioxo-1λ^6-isothiazolidin-2-yl)-1H-indazol-3-yl]-2-[4-(methylsulfonyl)phenyl]acetamide], with below 0.05 µM; and `CN1CCN(CC(=O)Nc2n[nH]c3ccc(N4CCCS4(=O)=O)cc23)CC1` [Compound 30, N-[5-(1,1-dioxo-1λ^6-isothiazolidin-2-yl)-1H-indazol-3-yl]-2-(4-methyl-1-piperazinyl)acetamide], with below 10 µM.
In the case of `O=C(CN1CCOCC1)Nc1n[nH]c2ccc(N3CCCS3(=O)=O)cc12` [Compound 31, N-[5-(1,1-dioxo-1λ^6-isothiazolidin-2-yl)-1H-indazol-3-yl]-2-(4-morpholinyl)acetamide], the IC50 is below 10 µM.
Then `O=C(CN1CCCCC1)Nc1n[nH]c2ccc(N3CCCS3(=O)=O)cc12` [Compound 32, N-[5-(1,1-dioxo-1λ^6-isothiazolidin-2-yl)-1H-indazol-3-yl]-2-(1-piperidinyl)acetamide], with below 10 µM.
Consider `O=C(Cc1ccc(-c2ccncc2)cc1)Nc1n[nH]c2ccc(N3CCCS3(=O)=O)cc12` [Compound 33, N-[5-(1,1-dioxo-1λ^6-isothiazolidin-2-yl)-1H-indazol-3-yl]-2-[4-(4-pyridinyl)phenyl]acetamide], for which the IC50 is below 0.05 µM.
Then `O=C(Cc1ccc(N2CCOCC2)cc1)Nc1n[nH]c2ccc(N3CCCS3(=O)=O)cc12` [Compound 35, N-[5-(1,1-dioxo-1λ^6-isothiazolidin-2-yl)-1H-indazol-3-yl]-2-[4-(1-morpholinyl)phenyl]acetamide], with below 0.1 µM.
Then `O=C(Cc1ccc(-c2ccsc2)cc1)Nc1n[nH]c2ccc(N3CCCS3(=O)=O)cc12` [Compound 36, N-[5-(1,1-dioxo-1λ^6-isothiazolidin-2-yl)-1H-indazol-3-yl]-2-[4-(3-thienyl)phenyl]acetamide], with below 0.05 µM.
The result for `O=C(Cc1ccc(S(=O)(=O)N2CCOCC2)cc1)Nc1n[nH]c2ccc(N3CCCS3(=O)=O)cc12` [Compound 37, N-[5-(1,1-dioxo-1λ^6-isothiazolidin-2-yl)-1H-indazol-3-yl]-2-[4-(4-morpholinylsulfonyl)phenyl]acetamide] reads below 0.1 µM.
